Assay results taken from ChEMBL document CHEMBL4483862, “Open-source discovery of chemical leads for next-generation chemoprotective antimalarials” (2018).

System: Plasmodium berghei
Test: Luciferase/luciferin-expressing antifolate-resistant parasites were used to infect a culture of HepG2 cells that were pre-incubated with compounds. Infected hepatocytes emit light due to the luciferase reaction. Assay results are presented as the percent inhibition of light emission compared to control. […]
Format: functional
Conditions: sporozoite; for IC90: read-out: LUCIFERASE INFECTION ASSAY - IC90
[1] = read-out: LUCIFERASE INFECTION ASSAY - IC50

SMILES	IC50 [1] [µM]	IC90 [µM]	other results
Cc1nc(-c2ccc(F)cc2)sc1C(=O)N1CCc2sccc2C1	> 10	> 10	
N#C/C(=C(\Oc1ccccc1)C(F)(F)F)c1ccccc1		10.9	IC50 (HEPG2TOX_HILL_SLOPE 4.45, HEPG2TOX_R_SQUARED 0.985, PBLUC_HILL_SLOPE 11.8, PBLUC_R_SQUARED 0.682, read-out: LUCIFERASE INFECTION ASSAY - IC50): 9.07 µM
CCOC(=O)Cc1ccc(NC(=O)c2ccc(C(C)(C)C)cc2)cc1		2.02	IC50 (HEPG2TOX_HILL_SLOPE 1.28, HEPG2TOX_R_SQUARED 0.763, PBLUC_HILL_SLOPE 1.21, PBLUC_R_SQUARED 0.784, read-out: LUCIFERASE INFECTION ASSAY - IC50): 0.329 µM
CCCCNC(=O)c1c(NC(=O)c2c(F)cccc2F)nc2ccc(C)cn12	5.12	6.69	
C=CCn1c(SCC(=O)c2cc(C)n(-c3cc(F)ccc3F)c2C)nc2scc(-c3ccccc3)c2c1=O		8.56	IC50 (PBLUC_HILL_SLOPE 5.29, PBLUC_R_SQUARED 0.561, read-out: LUCIFERASE INFECTION ASSAY - IC50): 5.65 µM
CCCCNC(=O)COc1ccc2[nH]c3ccccc3c(=O)c2c1		8.21	IC50 (PBLUC_HILL_SLOPE 1.51, PBLUC_R_SQUARED 0.724, read-out: LUCIFERASE INFECTION ASSAY - IC50): 1.92 µM
Cc1cc(C)cc(N(C(=O)C23CC4CC(CC(C4)C2)C3)C2C=CS(=O)(=O)C2)c1 (configuration not stated)	> 10	> 10	
CC(=O)N1CCc2cc(NC(=O)C3CCN(c4ccc(C#N)cn4)CC3)ccc21		> 10	IC50 (PBLUC_HILL_SLOPE 2.56, PBLUC_R_SQUARED 0.25, read-out: LUCIFERASE INFECTION ASSAY - IC50): > 10 µM
FC(F)(F)Oc1cccc(-c2[nH]nc3ccnc(-c4ccsc4)c23)c1	> 10	> 10	
CC(=O)N1N=C(c2ccccc2O)CC1c1c(F)cccc1Cl (configuration not stated)		9.88	IC50 (HEPG2TOX_HILL_SLOPE 8.22, HEPG2TOX_R_SQUARED 0.351, PBLUC_HILL_SLOPE 15.6, PBLUC_R_SQUARED 0.178, read-out: LUCIFERASE INFECTION ASSAY - IC50): 8.59 µM
Cc1cccc(NC(=O)c2ccc(Cl)c(S(=O)(=O)N3CCc4ccccc43)c2)n1	> 10	> 10	
COCCn1c(C(=O)OC)c(NC(=O)c2ccco2)c2cc(NC(C)Cc3ccc(C)cc3)cnc21 (configuration not stated)	3.69	> 6.73	
CCOC(=O)c1c(NC(=O)C2Cc3ccccc3CN2S(=O)(=O)c2cccs2)sc2c1CCCC2 (configuration not stated)		> 10	IC50 (HEPG2TOX_HILL_SLOPE 0.167, HEPG2TOX_R_SQUARED 0.0943, PBLUC_HILL_SLOPE 2.23, PBLUC_R_SQUARED 0.122, read-out: LUCIFERASE INFECTION ASSAY - IC50): 6.53 µM
C/C(=N\Nc1nc2ccccc2o1)c1ccc2ccccc2c1O		> 10	IC50 (HEPG2TOX_HILL_SLOPE 7.42, HEPG2TOX_R_SQUARED 0.127, PBLUC_HILL_SLOPE 13.1, PBLUC_R_SQUARED 0.536, read-out: LUCIFERASE INFECTION ASSAY - IC50): 8.85 µM
CC(=O)c1c(C)[nH]c(C(=O)Nc2ccc3ccccc3n2)c1C	0.934	1.16	
Oc1cccc(-c2cnc3cnc(-c4ccccc4Cl)cn23)c1		> 10.3	IC50 (HEPG2TOX_HILL_SLOPE 2.92, HEPG2TOX_R_SQUARED 0.924, PBLUC_HILL_SLOPE 1.11, PBLUC_R_SQUARED 0.809, read-out: LUCIFERASE INFECTION ASSAY - IC50): 1.72 µM
C#CCSc1nnc(-c2ccc(C(C)(C)C)cc2)n1-c1cccc(C(F)(F)F)c1	> 7.94	> 7.94	
CCN1C(=O)N(CCCc2cccnc2)C(=O)C12CCN(Cc1ccc3c(c1)Cc1ccccc1-3)CC2		2.58	IC50 (HEPG2TOX_HILL_SLOPE 1.68, HEPG2TOX_R_SQUARED 0.934, PBLUC_HILL_SLOPE 11.7, PBLUC_R_SQUARED 0.742, read-out: LUCIFERASE INFECTION ASSAY - IC50): 2.14 µM
COC(=O)c1cnc(Sc2ccc(C(F)(F)F)cn2)c([N+](=O)[O-])c1		> 9.18	IC50 (HEPG2TOX_HILL_SLOPE 7.53, HEPG2TOX_R_SQUARED 0.667, PBLUC_HILL_SLOPE 5.12, PBLUC_R_SQUARED 0.221, read-out: LUCIFERASE INFECTION ASSAY - IC50): > 9.18 µM
c1cncc(-c2cn3c(-c4ccsc4)cnc3cn2)c1	> 11.9	> 11.9	
O=C(NC(c1ccccc1O)C(NC(=O)c1ccccc1)c1ccccc1O)c1ccccc1 (configuration not stated)	> 7.29	> 7.29	
CCN(CC)S(=O)(=O)c1ccc(-c2ccc(C3NC(N)=Nc4nc5ccccc5n43)o2)cc1 (configuration not stated)	> 10	> 10	
CC(C)c1ccc(C(NCC(=O)NC(=O)NC2CCCC2)c2cccs2)cc1 (configuration not stated)	> 10	> 10	

SMILES	IC50 [1] [µM]	IC90 [µM]	other results
CCOc1ccc2c(c1)C(=O)C(=O)N2Cc1ccc(OC)cc1		> 10.6	IC50 (PBLUC_HILL_SLOPE 0.721, PBLUC_R_SQUARED 0.0969, read-out: LUCIFERASE INFECTION ASSAY - IC50): > 10.6 µM
Cc1nc(=O)c2c([nH]1)NC(=O)CC2c1cc(F)ccc1F (configuration not stated)	> 11.3	> 11.3	
N=C(NOC(=O)Nc1cccc(C(F)(F)F)c1)c1ccc(Oc2c(Cl)cncc2Cl)cc1		> 6.8	IC50 (HEPG2TOX_HILL_SLOPE 7.08, HEPG2TOX_R_SQUARED 0.63, PBLUC_HILL_SLOPE 1.44, PBLUC_R_SQUARED 0.448, read-out: LUCIFERASE INFECTION ASSAY - IC50): 4.93 µM
O=C(C1=NNCC1c1ccccc1)c1ccc2ccccc2c1 (configuration not stated)		> 11	IC50 (HEPG2TOX_HILL_SLOPE 1.14, HEPG2TOX_R_SQUARED 0.985, PBLUC_HILL_SLOPE 1.79, PBLUC_R_SQUARED 0.146, read-out: LUCIFERASE INFECTION ASSAY - IC50): 5.28 µM
COC(=O)c1sc(SCCOC(=O)Nc2ccc(OC(F)(F)F)cc2)c2c1CC(C)(C)CC2=O		> 6.38	IC50 (FFLUC_HILL_SLOPE 7.12, FFLUC_R_SQUARED 0.0522, read-out: LUCIFERASE INFECTION ASSAY - IC50): > 6.38 µM
COc1cc(F)c(S(=O)(=O)N2CCCc3cc(F)cc(F)c32)cc1OC		> 10	IC50 (PBLUC_HILL_SLOPE 2.81, PBLUC_R_SQUARED 0.427, read-out: LUCIFERASE INFECTION ASSAY - IC50): 6.52 µM
N=c1c2ccccc2nnn1-c1ccc(C(F)(F)F)cc1		7.24	IC50 (PBLUC_HILL_SLOPE 2.81, PBLUC_R_SQUARED 0.81, read-out: LUCIFERASE INFECTION ASSAY - IC50): 3.32 µM
Cc1cc(C(=O)N/N=C2\C(=O)Nc3ccccc32)c(C)n1-c1ccc(F)cc1		> 10	IC50 (PBLUC_HILL_SLOPE 1.9, PBLUC_R_SQUARED 0.511, read-out: LUCIFERASE INFECTION ASSAY - IC50): 3.94 µM
O=c1nc(-c2ccc(Cl)cc2)oc2ccccc12		10.8	IC50 (PBLUC_HILL_SLOPE 3.1, PBLUC_R_SQUARED 0.539, read-out: LUCIFERASE INFECTION ASSAY - IC50): 5.33 µM
CCOc1ccccc1CCC(=O)NCc1ccc(CS(N)(=O)=O)cc1	> 10	> 10	
CNC(=S)Nc1ccc(-n2cnc3ccccc32)cc1	> 10	> 10	
CNc1nc(CSc2ccc(Cl)cc2)nc2sc3c(c12)CCC3	> 10	> 10	
C=S(=O)(NC(=O)c1ccc(-c2cc(C(F)(F)F)nn2C)s1)c1ccc(C)cc1 (configuration not stated)	> 7.72	> 7.72	
CC(C)n1c(Sc2ncc([N+](=O)[O-])s2)nc2cc(Cl)ccc21		8.83	IC50 (FFLUC_HILL_SLOPE 44.5, FFLUC_R_SQUARED 0.755, HEPG2TOX_HILL_SLOPE 8.37, HEPG2TOX_R_SQUARED 0.175, PBLUC_HILL_SLOPE 4.42, PBLUC_R_SQUARED 0.266, read-out: LUCIFERASE INFECTION ASSAY - IC50): 5.37 µM
Cc1ccc(-c2nc3cc(Br)cnc3nc2-c2ccc(C)cc2)cc1		6.85	IC50 (HEPG2TOX_HILL_SLOPE 1.79, HEPG2TOX_R_SQUARED 0.907, PBLUC_HILL_SLOPE 4.08, PBLUC_R_SQUARED 0.409, read-out: LUCIFERASE INFECTION ASSAY - IC50): 4 µM
CCn1c(NC(=O)Cc2ccc(C)c(OC)c2)nc2ccccc21		8.25	IC50 (PBLUC_HILL_SLOPE 4.04, PBLUC_R_SQUARED 0.646, read-out: LUCIFERASE INFECTION ASSAY - IC50): 4.79 µM
CCCn1c(=O)n(C)c(=O)c2c(SCc3cccc([N+](=O)[O-])c3)nc(CC(C)C)nc21	> 10	> 10	
O=[N+]([O-])c1ccc(Sc2nc(-c3ccccc3)c(-c3ccccc3)[nH]2)cc1		> 8.84	IC50 (FFLUC_HILL_SLOPE 23.8, FFLUC_R_SQUARED 0.615, read-out: LUCIFERASE INFECTION ASSAY - IC50): > 8.84 µM
Cc1cc(OCC(=O)N(C)Cc2nc3ccsc3c(=O)[nH]2)ccc1C(C)C	> 10	> 10	
Cc1cc(C)nc(N/N=C/c2c(C)nn(-c3ccccc3)c2Sc2nc3ccccc3s2)n1	> 10	> 10	
COc1cc2nc(-c3ccccc3)nc(N3CCN(CCN4CCCC4)CC3)c2cc1OC		7.65	IC50 (PBLUC_HILL_SLOPE 1.93, PBLUC_R_SQUARED 0.643, read-out: LUCIFERASE INFECTION ASSAY - IC50): 2.46 µM
Clc1ccc(C2=NC(c3ccc(Cl)c(Cl)c3)N=C(c3ccc(Cl)cc3)S2)cc1		> 7.08	IC50 (PBLUC_HILL_SLOPE 0.411, PBLUC_R_SQUARED 0.521, read-out: LUCIFERASE INFECTION ASSAY - IC50): > 7.08 µM
CNc1snc(C)c1C(=O)NCC(c1cccs1)c1c[nH]c2ccccc12 (configuration not stated)		9.68	IC50 (PBLUC_HILL_SLOPE 9.74, PBLUC_R_SQUARED 0.4, read-out: LUCIFERASE INFECTION ASSAY - IC50): 7.72 µM
